Legend:
calf thymus DNA = experiment: Covalent photobinding of tritiated isopsoralens (scintillation counting); type: binding; settings: for actual concentrations obtained empirically: nominal concentration of 100 µg/ml in calf thymus DNA / 1 x TE, counted after sitting overnight at room temperature
Method: Figure 17 can again be referred to as a flow chart schematically showing the manner in which covalent binding was measured for the compounds synthesized by the methods of the present invention. ^3H-AMIP (3.1 x 10^5 cpm/µg), ^3H-AMDMIP (2.2 x 10^5 cpm/µg), and ^3H-MIP (2.1 x 10^5 cpm/µg) were added to 300 µl of calf thymus DNA (Sigma) in 1 x TE buffer. All of the isopsoralen compounds were added at a nominal concentration of 100 µg/ml. However, actual concentrations obtained empirically (counted after sitting overnight at room temperature) were: ^3H-AMIP (105 µg/ml), ^3H-AMDMIP (115 µg/ml), and ^3H-MIP ([…]).
To assess binding, three samples were prepared for each compound; two were irradiated (15 minutes at 25°C with the CE-I device) while one was unirradiated as a control. Following irradiation, the samples were extracted four times with CHCl3 then precipitated twice. The final pellet was brought up in 1 ml of 1 x TE buffer and resuspended by shaking at 40°C overnight. 50 µl of each sample was then diluted to 0.5 mls with H20. The concentration of DNA was determined by UV absorption (A260) and the amount of covalently bound isopsoralen ("adduct") was determined by scintillation counting (3 x 100 µl aliquots). From these numbers, the following binding ratios (adducts: DNA base pair) were determined: […]

Taq I DNA polymerase = experiment: Primer extension on site-specific 71-mer monoadduct template; type: biochemical, Thermus aquaticus; settings: for Taq polymerase extension on 71-mer monoadduct template / position of the Taq polymerase stop within the 71-mer: 55°C, PAGE, autoradiography; for Taq polymerase extension on 71-mer monoadduct template: 0.5, 1.0, 5.0 mins
Method: In this experiment, monoadducted 71-mers (as well as unmodified 71-mers) were used in template-dependent enzymatic extension. AMIP, AMDMIP, and MIP 71-mer monoadducts were made as in Example 17. Extension was carried out as in Example 18 except that in this experiment, Taq I DNA polymerase, a thermostable DNA polymerase isolated from Thermus aquaticus (Stratagene, Inc., La Jolla, CA) was assessed for its ability to read past isopsoralens.
The reaction mixture was in 80 µl total volume and comprised 1 x Taq buffer, 200 µM each of dNTP's, 0.05 units of Taq per µl of reaction volume; 1 x 10^-9 M in 71-mer MA; 1 x 10^-8 M in ^32P-labelled SK-39. Each reaction was set up with everything except Taq polymerase. The samples were initially heated to 95°C for 5 mins, then incubated at 55°C for 3 mins. The extension reaction was initiated by addition of Taq polymerase. At the indicated time points (0.5, 1.0, 5.0 mins), 20 µl of the reaction mix was removed to a tube containing 1 µl of 0.5 M EDTA to stop the reaction. All products were analyzed on a 20% polyacrylamide, 7 M urea gel followed by autoradiography.
This experiment investigated whether blocking of Taq polymerase by monoadducts is complete or whether monoadducts can be bypassed by the enzyme. In order to view the process of bypass synthesis, it is necessary to cycle the extension reaction of the primer with the 71-mer templates. Cycling in this case consists of mixing the primer with the 71-mer template, adding Taq polymerase and appropriate reagents, extending, heating to induce strand separation, reannealing of the primer to the 71-mer template, extending again, and subsequent stand separation. This process can be repeated as necessary. During this process, only the complement of the 71-mer template is being synthesized. It is accumulating in a linear fashion with the number of thermal cycles (in contrast to PCR where both strands are being synthesized and accumulate geometrically).
The templates and reaction conditions were as in Example 19 above except that three samples were used for each monoadduct and each sample was tested under different conditions: • Samples (1): one sample for each monoadduct was used to carry out extension at 55°C as in Example 43; • Samples (2): one sample for each monoadduct was used to carry out extension by the following series of steps: denaturing at 95°C; incubating for 30 seconds at 55°C; adding Taq polymerase for 3 minutes at 550C; cooling the reaction for 1 minute at 7°C; stopping the reaction with EDTA for one minute at 95°C: • Samples (3): one sample for each monoadduct was used to carry out extension by repeating the following series of steps nine times: denaturing at 95°C; incubating for 30 seconds at 55°C; adding Taq polymerase for 3 minutes at 55°C; cooling the reaction for 1 minute at 7°C. At the end, the reaction is stopped with EDTA for one minute at 95°C.
To investigate this question further, a new 5-MIP monoadducted 71-mer was prepared by repurification of the HPLC purified 5-MIP monoadducted 15-mer by PAGE. In this way, more of the non-monoadducted 15-mer was removed prior to ligation. The purified 71-mer was then used as template in an extension experiment as described in Example 20. After 10 cycles, there was still evidence of extension product (Figure 34).
Monoadducted 71-mer was constructed as described, but for HMT. Extension was carried out and analyzed as before on PAGE. […] Full length 71-mer is not made and a shorter strand corresponding to the position of the HMT adduct was made.

Molecule	actual concentrations obtained empirically (calf thymus DNA)	Taq polymerase extension on 71-mer monoadduct template (Taq I DNA polymerase)	position of the Taq polymerase stop within the 71-mer (Taq I DNA polymerase)	modification density relative to that provided by AMDMIP (calf thymus DNA; photobinding at the same concentration)	extension products truncated (Taq I DNA polymerase; monoadducted 15-mer repurified by PAGE before ligation, after 10 cycles)	full length extension product as share of the total extension products (Taq I DNA polymerase; monoadducted 15-mer repurified by PAGE before ligation, after 10 cycles, band excised and counted)
4'-Aminomethyl-4,5'-dimethylisopsoralen [AMDMIP]	115 µg/mL	stops at positions that are shorter than the full length 71-mer product	a different stop altogether			
5-Aminomethylisopsoralen [AMIP]	105 µg/mL	stops at positions that are shorter than the full length 71-mer product	multiple stops	43%		
Cc1cc2occc2c2oc(=O)ccc12 [MIP, 5-Methylisopsoralen]	< 10 µg/mL	stops at positions that are shorter than the full length 71-mer product	at about the position of the TpA sequence in the 10-mer		97.7%	2.3%

— patent publication EP0497921B1, “METHOD FOR INHIBITING ENZYMATIC SYNTHESIS OF NUCLEIC ACIDS USING ISOPSORALENS” (ISAACS, Stephen T., priority 1989, dated 1991)
